Laboratory results as given in patent publication US6841561B1, “Dihydroorotate dehydrogenase inhibitors for the treatment of viral-mediated diseases” (priority 1999, dated 2005).
“And” between values parts separate entries of the source, which are not always exact repeats. Equal entries are not always repeated. Where two headings read alike, the source gives them in different places.

Assays:
yellow fever virus [1] = assay: microbe, parasite or virus in culture
dengue virus [2] = assay: microbe, parasite or virus in culture; type: cell-based; conditions: Vero
yellow fever virus [3] = type: cell-based
kunjin virus [4] = assay: microbe, parasite or virus in culture; type: cell-based; conditions: West Nile virus
kunjin virus [5] = type: cell-based
[6] = tested on: vesicular stomatitis virus; assay: microbe, parasite or virus in culture
yellow fever virus [7] = assay: in vitro
[8] = tested on: vesicular stomatitis virus; assay: in vitro; conditions: human
dengue virus [9] = type: cell-based
VSV = type: cell-based, vesicular stomatitis virus
[10] = tested on: respiratory syncytial virus; assay: microbe, parasite or virus in culture; type: cell-based; conditions: human respiratory syncytial virus, Vero, read-out: ED50 RSV VERO
hepatitis C = conditions: patients with chronic hepatitis C; in combination with interferon; cited from earlier work

SMILES: Cc1nc2c(n1-c1ccc(Br)cc1)C(=O)c1ccccc1C2=O [BNID, 1-(p-bromophenyl)-2-methyl-1H-naphth[2,3-d]imidazole-4,9-dione]
- EC50 (yellow fever virus [1]; Huh-7, read-out: ED50): 1150 nM
- EC50 (yellow fever virus [1]; Vero, read-out: ED50): 1250 nM
- EC50 (dengue virus [2]; read-out: ED50): 1250 nM
- Fold enhancement (yellow fever virus [3]): 10 fold and 5 fold
- EC50 (kunjin virus [4]; Huh-7, read-out: ED50): 1150 nM
- EC50 (kunjin virus [4]; Vero, read-out: ED50): 1050 nM
- Fold enhancement (kunjin virus [5]): 6 fold
- EC50 ([6]; Huh-7, read-out: ED50): 640 nM

SMILES: Cc1c(-c2ccc(-c3ccccc3F)cc2)nc2ccc(F)cc2c1C(=O)[O-].[Na+] [Brequinar, 6-fluoro-2-(2′-fluoro-1,1′-biphenyl-4-yl)-3-methyl-4′-quinolinecarboxylic acid sodium salt]
- EC50 (yellow fever virus [1]; Huh-7, read-out: ED50): 50 nM
- EC50 (yellow fever virus [1]; Huh-7, read-out: ED50 YFV HuH7): 30 nM
- EC50 (yellow fever virus [1]; Vero, read-out: ED50): 20 nM
- EC50 (yellow fever virus [1]; Vero, read-out: ED50 YFV VERO): 20 nM
- EC50 (dengue virus [2]; read-out: ED50): 20 nM
- EC50 (dengue virus [2]; read-out: ED50 DEN VERO): 40 nM
- EC50 (kunjin virus [4]; Huh-7, read-out: ED50): 30 nM
- EC50 (kunjin virus [4]; Huh-7, read-out: ED50 KUN HuH7): 40 nM
- EC50 (kunjin virus [4]; Vero, read-out: ED50): 20 nM
- selectivity ratio (yellow fever virus [7]; human): 60
- selectivity ratio (yellow fever virus [7]; monkey): 2670
- Fold enhancement (kunjin virus [5]): 4.5 fold
- selectivity ratio [8]: 2100
- Fold enhancement (dengue virus [9]): 10 fold
- EC50 ([6]; Huh-7, read-out: ED50): 14 nM
- EC50 ([6]; Huh-7, read-out: ED50 VSV HuH7): 80 nM
- Fold enhancement (VSV): 266 fold
- EC50 [10]: 20 nM

SMILES: O=C1C(O)=C(CC=C(Cl)Cl)C(=O)c2ccccc21 [Dichloroallyl lawsone, dichloroallyl lawsone]
- EC50 (yellow fever virus [1]; Huh-7, read-out: ED50): 1100 nM
- EC50 (yellow fever virus [1]; Vero, read-out: ED50): 900 nM
- EC50 (kunjin virus [4]; Huh-7, read-out: ED50): 780 nM
- EC50 ([6]; Huh-7, read-out: ED50): 490 nM

SMILES: O=C(O)c1cc(-c2ccc(-c3ccccc3)cc2)nc2ccc(OC(F)(F)F)cc12 [I2K5, 2-(4-biphenylyl)-6-trifluoromethoxy-quinoline-4-carboxylic acid]
- EC50 (yellow fever virus [1]; Huh-7, read-out: ED50 YFV HuH7): 1700 nM
- EC50 (yellow fever virus [1]; Vero, read-out: ED50 YFV VERO): 800 nM
- EC50 (dengue virus [2]; read-out: ED50 DEN VERO): 800 nM
- Fold enhancement (yellow fever virus [3]): 3 fold
- EC50 (kunjin virus [4]; Huh-7, read-out: ED50 KUN HuH7): 2000 nM

SMILES: O=C(O)c1cc(-c2ccc(C3CCCCC3)cc2)nc2ccc(OC(F)(F)F)cc12 [I2K46, 2-(4-cyclohexylphenyl)-6-trifluoromethoxy-quinoline-4-carboxylic acid]
- EC50 (yellow fever virus [1]; Huh-7, read-out: ED50 YFV HuH7): 5100 nM
- EC50 (kunjin virus [4]; Huh-7, read-out: ED50 KUN HuH7): 6300 nM

SMILES: COc1c(-c2cc(C(=O)O)c3cc(OC(F)(F)F)ccc3n2)ccc(OCc2ccccc2)c1C [I2K51, 2-(4-benzyloxy-2-methoxy-3-methyl-phenyl)-6-trifluoromethoxy-quinoline-4-carboxylic acid]
- EC50 (yellow fever virus [1]; Vero, read-out: ED50 YFV VERO): 1300 nM
- EC50 (dengue virus [2]; read-out: ED50 DEN VERO): 2600 nM

SMILES: O=C(O)c1cc(-c2ccc(Oc3ccccc3)cc2)nc2ccc(OC(F)(F)F)cc12 [I2K52, 2-(4-phenoxyphenyl)-6-trifluoromethoxy-quinoline-4-carboxylic acid]
- EC50 (yellow fever virus [1]; Huh-7, read-out: ED50 YFV HuH7): 11300 nM
- EC50 (kunjin virus [4]; Huh-7, read-out: ED50 KUN HuH7): 9600 nM

SMILES: Cc1c(-c2ccc(-c3ccccc3)cc2)nc2ccc(OC(F)(F)F)cc2c1C(=O)O [I2K55, 2-(4-biphenylyl)-3-methyl-6-trifluoromethoxy-quinoline-4-carboxylic acid]
- EC50 (yellow fever virus [1]; Huh-7, read-out: ED50 YFV HuH7): 6100 nM
- EC50 (yellow fever virus [1]; Vero, read-out: ED50 YFV VERO): 11800 nM
- EC50 (dengue virus [2]; read-out: ED50 DEN VERO): 11800 nM
- EC50 (kunjin virus [4]; Huh-7, read-out: ED50 KUN HuH7): 5800 nM

SMILES: COc1cc(-c2ccc(Nc3ccccc3C(=O)O)c(OC)c2)ccc1Nc1ccccc1C(=O)O [Redoxal]
- EC50 (yellow fever virus [1]; Huh-7, read-out: ED50): 630 nM
- EC50 (yellow fever virus [1]; Vero, read-out: ED50): 250 nM
- EC50 (dengue virus [2]; read-out: ED50): 390 nM
- EC50 (kunjin virus [4]; Huh-7, read-out: ED50): 520 nM
- EC50 (kunjin virus [4]; Vero, read-out: ED50): 390 nM
- EC50 ([6]; Huh-7, read-out: ED50): 630 nM

SMILES: NC(=O)c1ncn([C@@H]2O[C@H](CO)[C@@H](O)[C@H]2O)n1 [Ribavirin]
- EC50 (yellow fever virus [1]; Huh-7, read-out: ED50): 34000 nM
- EC50 (yellow fever virus [1]; Vero, read-out: ED50): 205000 nM
- EC50 (dengue virus [2]; read-out: ED50): 320000 nM
- EC50 (kunjin virus [4]; Huh-7, read-out: ED50): 60000 nM
- EC50 (kunjin virus [4]; Vero, read-out: ED50): 309000 nM
- selectivity ratio (yellow fever virus [7]; human): 70
- selectivity ratio (yellow fever virus [7]; monkey): 36
- combined treatment efficacy (hepatitis C): up to 40%
- EC50 ([6]; Huh-7, read-out: ED50): 250000 nM
- EC50 ([6]; MRC5, read-out: ED50): 120000 nM
